From US20210008104A1, “COMPOSITIONS AND METHODS FOR INHIBITING HIV-1 REVERSE TRANSCRIPTASE” (The United States of America, as represented by the …, priority 2017, published 2021)
“Also recorded” adds a separate entry of the source.

Key:
[1] = target: T1, pol β-nicked DNA complexes (Homo sapiens, UniProt P06746); assay: Time-lapse crystallography of the reverse reaction
T1 construct: made in house
Method: Binary complex crystals with nicked DNA were grown as previously described43. The time-lapse crystallography was performed as before11 and is briefly summarized here. Binary pol β/DNA complex crystals were first transferred to a cryosolution containing 15% ethylene glycol, 50 mM imidazole, pH 7.5, 20% PEG3350, 90 mM sodium acetate, 2 mM PNP and 50 mM CaCl2) for 1 h. These ground state (GS) ternary complex crystals were then transferred to a cryosolution containing 200 mM MgCl2 for varying times. All reactions were stopped by freezing the crystals at 100K before data collection at the home source, 1.54 Å, or the Advanced Photon Source, 1.0 Å (Argonne National Laboratory). In house data collection was done on a SATURN92 CCD detector system mounted on a […] rotating anode generator. This allows for anomalous data detection after phasing by molecular replacement. […] Initial models were determined using molecular replacement with the open binary (PDB ID 3ISB) or closed ternary (PDB ID 2FMS) structures of pol β and all Rfree flags were taken from the starting model. […] The metal-ligand coordination restraints were generated by ReadySet (PHENIX) and not used until the final rounds of refinement. […] Ramachandran analysis determined 100% of nonglycine residues lie in allowed regions and at least 97% in favored regions.

human DNA polymerase β [2] = target: T2, human DNA polymerase β (Homo sapiens, UniProt P06746); settings: [32P]PPi into dCTP, slope/enzyme-DNA complex
Method: Pyrophosphate exchange assay. Pol β (2.5 μM) was pre-incubated with 500 nM unlabeled nicked DNA substrate containing a matched primer terminal base pair (G-C, template-primer) in reaction buffer with 20 mM MgCl2 and manually mixed (1:1, v/v) with a prewarmed solution of reaction buffer, 2 mM [^32P] PPi, and 100 μM dCTP. Aliquots were withdrawn at various time points and quenched with 1 vol. of 0.3 M EDTA. Quenched reactions mixtures were applied to PEI cellulose plates and developed in 0.3 M potassium phosphate buffer, pH 8.0. Plates were scanned followed by quantitation using a phosphorimager and ImageQuant software.

human DNA polymerase β [3] = target: T2, human DNA polymerase β; assay: Single-turnover analysis of reverse reaction (pyrophosphorolysis / PNP-dependent) on nicked DNA; assay type: biochemical; parameters: made in house
Method: Reaction buffer. All kinetic measurements were performed in a buffer containing 50 mM MES, 25 mM Tris, 25 mM ethanolamine (pH 7.5 adjusted at 37° C.), 100 mM KCl, 10 mM MgCl2 supplemented with 10% glycerol, 100 μg/ml bovine serum albumin, 1 mM DTT, and 0.1 mM EDTA. […] DNA polymerase β was used to fill a 1-nucleotide gapped DNA substrate with either [^32P] dCTP or [^35S] dATP to create a 3'-radiolabeled nicked DNA substrate. The reaction mixture contained 50 mM Tris-Cl, pH 7.4 (37° C.), 100 mM KCl, 10 mM MgCl2, 1 mM DTT, 2.5 μM gapped DNA, […] [^32P] dCTP or [^35S] dATP. The single-nucleotide DNA substrate was similar to the nicked substrate described above, except the primer strand was one nucleotide shorter (3'-nucleotide deleted). Gap filling was initiated by addition of pol β and incubated at 37° C. for 5-10 min. The reaction was quenched by addition of 0.5 M EDTA (0.1 vol). To remove enzyme and unincorporated nucleotides, the mixture was extracted with phenol-chloroform-isoamyl alcohol (25:24:1) followed by two passages through BioSpin 6 columns. Aliquots of the labeling reaction were removed before and following the extraction and removal steps to determine final DNA substrate concentration. Pre- and post-aliquots (1 μl) were spotted onto PEI cellulose plates and developed in 0.375 M KH2PO4, pH 4.0. The ratio (post/preextraction) was used to correct the initial DNA concentration for loss or dilution of substrate. Kinetic parameters for the reverse reaction were determined under single turnover conditions (E/DNA=10) at 37° C. […] Time courses were initiated by mixing with an equal volume of a 20 mM MgCl2 and 50 μM dNTP trap solution in reaction buffer. The dNTP trap prevents re-insertion of radiolabeled product dNTP and corresponds to the identity of the nucleotide triphosphate produced during the reaction. […] EDTA (0.1 or 0.2 M) was used as the quenching agent. Substrates and products were resolved by TLC in either 0.2 or 0.3 M NaPi, pH 7.0 buffer. Kinetic analysis. Single-turnover time courses were fit to a single exponential equation to yield the first-order rate constants (kobs) at a given concentration of GMPPNP, PPi or PNP. Under these conditions, kobs was dependent on the concentration of substrate. A secondary plot of the concentration dependence of kobs was hyperbolic and fitted by nonlinear least-squares method to equation (1) where kmax is the intrinsic rate constant for the step limiting the first nucleotide insertion (forward reaction) or removal (reverse reaction). kobs=kmax[S]/[…] (1) […] Unless noted, kinetic constants represent best-fit parameters and their standard error.

human DNA polymerase β [4] = target: T2, human DNA polymerase β; assay: Overall equilibrium constant determination (gapped vs nicked DNA); assay type: biochemical; parameters: made in house; settings: dCTP
Method: A mixture of 500 nM pol β with single-nucleotide gapped DNA (pol/DNA=10; templating G or C) containing various concentrations of PPi (500-2,000 μM) or PNP (20, 50, 100 μM) was mixed with an equal volume of 20 mM MgCl2 containing 60-100 nM dCTP or 50 μM dGMPPNP and incubated at 37° C. for various time intervals. Aliquots (10 μl) were withdrawn at various times and quenched with an equal volume of 0.3 M EDTA. The reactions were quenched after 10-80 s and reaction products separated on a sequencing gel. The substrate (gapped DNA) and product (nicked DNA) bands were quantitated, and the overall equilibrium constant calculated; Keq=[nicked DNA][PPi]/[gapped DNA][dCTP] or [nicked DNA] [PNP]/[gapped DNA][dGMPPNP]. The mean and standard error for 6 independent determinations are reported in the text.

human DNA polymerase β [5] = target: T2, human DNA polymerase β; assay: Removal of chain-terminated or mismatched primer termini by reverse reaction; assay type: biochemical; parameters: made in house; settings: G-A or G-T primer terminal mismatch
Method: The removal of a terminated primer terminus by the reverse reaction required enzymatic synthesis of the nicked DNA substrate. A pre-incubated mixture of 4 μM pol and 0.4 μM one-nucleotide gapped DNA was mixed 1:1 (v/v) with 20 mM MgCl2 and 0.2 μM various triphosphates of chain-terminating nucleotides ([…], or dFdCTP). The gap-filling reaction proceeded at 37° C. for 10-20 min to generate a terminated nicked DNA substrate. An aliquot was removed and quenched to verify complete gap filling (16-mer). The reverse reaction was initiated by addition of an equal volume of 10 mM MgCl2 and 250 μM PPi or PNP. An aliquot (time=3 min) was removed, quenched, and analyzed on a denaturing gel. The removal of a terminal mismatch by a reverse reaction was followed by incubation of […] Pol with 100 nM 5'-^32P-labeled nicked DNA substrate with a matched (G-C) or mismatched (G-A or G-T) primer terminal base pair for 5 min at 37° C. This was mixed with a solution of 20 mM MgCl2 and 2 mM PPi or PNP (1:1, v/v) to initiate the reaction.

human DNA polymerase β [6] = target: T2, human DNA polymerase β; assay: Qualitative reverse reaction assay with PPi analogs; assay type: biochemical; parameters: made in house; settings: 1 mM PPi analog, 10 mM MgCl2, 5′-32P-labeled nicked DNA
Method: Reverse reaction assay. Pol β (1 μM) was pre-incubated with 100 nM nicked DNA containing either a matched or mismatched primer terminus for 5 min at 37° C. in reaction buffer. A solution with 20 mM MgCl2 containing 2 mM PPi or pyrophosphate analog in reaction buffer was used to initiate the reaction. Following mixing, the final concentrations were 500 nM pol β, 50 nM nicked DNA, 10 mM MgCl2, and 1 mM PPi or pyrophosphate analog. Aliquots (5 or 10 μl) were removed at various times and quenched in an equal volume of 0.3 M EDTA, pH 8.0. Reaction substrates and products were separated and visualized as described above.

human DNA polymerase β [7] = target: T2, human DNA polymerase β; assay: Gap filling DNA synthesis kinetic assay (single-turnover insertion); assay type: biochemical; parameters: made in house
Method: Gap filling DNA synthesis kinetic assay. To measure the rate of the first insertion (kpol) and apparent equilibrium nucleotide dissociation constant (Kd), single-turnover kinetic assays (enzyme/DNA=10) were performed as described previously. Briefly, a pre-incubated solution of enzyme and DNA was rapidly mixed with various concentrations of MgCl2 and dGMPPNP using a Kintek RQF-3 rapid quench-flow. Reactions were quenched with 0.25 M EDTA.
where S=dGMPPNP, PPi, or PNP. For the insertion of dGMPPNP, the secondary plot was fit to a quadratic equation (equation (2)) due to its high affinity relative to the enzyme concentration.
kobs=(kpol)(((Kd+[dGMPPNP]+[EDNA])((Kd+[dGMPPNP]+[EDNA])^2)−(4[dGMPPNP][EDNA]))^0.5)/2[EDNA] (2)

[8] = single-turnover gap filling, relative to natural nucleotide

## O=P(O)(O)NP(=O)(O)O [PNP, imidodiphosphate]
[1]; short Mg2+ soak of PNP-Ca2+ ternary complex crystals
  complexes that had undergone a reverse reaction (occupancy refinement): approximately 40%

## O=P(O)(O)OP(=O)(O)O [PPi, pyrophosphate]
Human DNA polymerase β [2]
  observed rate for the exchange reaction: 0.028 s⁻¹
[1]; binary pol β-nicked DNA crystals soaked with ligand
  reverse reaction in crystals: did not generate dNTP
Human DNA polymerase β [3]; 1 mM PPi, 3′-[32P]dAMP primer terminus, single-turnover
  kobs for removal of 32P-labeled dAMP: 0.030 s⁻¹
Human DNA polymerase β [3]; 1 mM PPi, 3′-[35S]dAMP (phosphorothioate) primer terminus, single-turnover
  kobs for removal of 35S-labeled dAMP: 0.039 s⁻¹
Human DNA polymerase β [3]; nicked DNA with 3′-[32P]dCMP, single-turnover, secondary plot of kobs, read-out: apparent PPi binding affinity (Kd)
  Kd: ~90 µM
Human DNA polymerase β [3]; nicked DNA, single-turnover (enzyme/DNA>1)
  observed rate constant for the reverse reaction (krev): ~0.03 s⁻¹
Human DNA polymerase β [3]; removal of 3′-terminal Rp-phosphorothioate nucleotide vs dAMP
  phosphorothioate (thio-elemental) effect krev(O)/krev(S): no phosphorothioate elemental effect
Human DNA polymerase β [4]; 1000 μM PPi
  calculated equilibrium constant: 62,700
Human DNA polymerase β [4]; 2000 M PPi
  calculated equilibrium constant: 82,300
Human DNA polymerase β [4]; different PPi concentrations, mean and standard error of 6 determinations
  overall equilibrium constant Keq: 68,700±7,200
Human DNA polymerase β [5]
  removal of a 3′ mismatched nucleotide: very poor

## O=P(O)(O)C(Cl)(Cl)P(=O)(O)O [clodronate]
Human DNA polymerase β [6]
  ability to serve as substrate for the reverse reaction (qualitative): poor

## Nc1nc2c(ncn2[C@H]2C[C@H](O)[C@@H](COP(=O)(O)OP(=O)(O)NP(=O)(O)O)O2)c(=O)[nH]1 [dGMPPNP, 2′-deoxyguanosine-5′-[(β, γ)-imido]triphosphate]
Human DNA polymerase β [7]; binds tightly and is inserted slowly
  inhibition of the forward reaction: good inhibitor
Human DNA polymerase β [7]; [8]
  binding affinity: increased
  rate of insertion: strongly diminished; also recorded: two orders of magnitude

## CC(O)(P(=O)(O)O)P(=O)(O)O [etidronate]
Human DNA polymerase β [6]
  ability to serve as substrate for the reverse reaction (qualitative): moderate

## NCCC(O)(P(=O)(O)O)P(=O)(O)O [pamidronate]
Human DNA polymerase β [6]
  ability to serve as substrate for the reverse reaction (qualitative): poor
